Measured values from US5770688A, “Method and composition for the treatment of mammalian HIV infection” (GSF-Forschungszentrum fur Umwelt und Gesundheit GmbH, priority 1989, dated 1998).

Key:
[1] = test system: non-infected cells; assay: MTT toxicity/killing of non-infected cells (Biomek 1000); assay type: cell-based
Method: The KE37-1 (uninfected) and KE37-1/111β (infected) cell lines discussed below are commercially available from the Dr. Robert Gallows Laboratory of the NIH in the United States of America and grown in a medium of RPMI 1640 (GIBCO) and further supplemented with 10% fetal calf serum which contained approximately 100 units of penicillin, 100 μg streptomycin, and approximately 0.25 μg fungizone (Amphotericin B) per milliliter. The human mesenchymal cell lines LC5 and LC5-HIV, discussed below, are deposited with the Collection De L'Institut Pasteur of Paris, France on Mar. 9, 1989 and given the accession numbers I-842 and I-843, respectively. […]
In the present series of experiments HIV release was tested by a fully automated laboratory robot system and which is manufactured by Beckman Instruments as the Biomek 1000. […] The number of living cells are quantified by MTT, that is by a metabolic (dehydrogenase) test. […] The toxic effect is detected at the time of the experiment and not in a separate control experiment. Furthermore, the supernatant, and which contains released virus cells from the period of time which elapsed from the last wash, and which may vary from 24 hours to 7 days, is collected from the culture, and an aliquot is saved for virus quantification by employing antigen or viral enzyme reverse transcriptase (RT). […]

[2] = test system: KE37-1/111β (HIV-infected T-lymphoma cells); assay: MTT test, growth of HIV infected T-lymphoma cells; assay type: cell-based
Method: The KE37-1 (uninfected) and KE37-1/111β (infected) cell lines discussed below are commercially available from the Dr. Robert Gallows Laboratory of the NIH in the United States of America and grown in a medium of RPMI 1640 (GIBCO) and further supplemented with 10% fetal calf serum which contained approximately 100 units of penicillin, 100 μg streptomycin, and approximately 0.25 μg fungizone (Amphotericin B) per milliliter. The human mesenchymal cell lines LC5 and LC5-HIV, discussed below, are deposited with the Collection De L'Institut Pasteur of Paris, France on Mar. 9, 1989 and given the accession numbers I-842 and I-843, respectively. The LC5 and LC5-HIV cell lines were grown in a medium of RPMI 1640 and supplemented with 10% fetal calf serum.
Referring more particularly to FIGS. 1-4, melittin (Seq. ID NO:1) and its specified analogues were tested for their effect on HIV-infected T-lymphoma cells. In this regard the following cell lines were employed in the testing: KE37-1 (uninfected) and KE37-1/111S (infected with HTLV-111β). These infected cells were incubated for a period of seven days under test conditions at a temperature of 37° C. and in the presence of 5% CO2. A culture medium of RPMI 1640 (GIBCO) was employed and was further supplemented with 10% fetal calf serum which contained approximately 100 units of penicillin, 100μ of streptomycin, and approximately 0.25μ fungizone (Amphotericin B) per milliliter. This equals 1 milliliter of antibiotic-antimycotic solution (GIBCO Catalogue No. 043-05240 per 100 ml. of medium.) After a one week incubation period in the presence of various concentrations of the above-identified substances, which were added fresh daily to the medium, the following tests were carried out with the cultures. A first test was conducted for purposes of determining the relative cell concentration as a function of the number of HIV infected cells present by employing an MTT test. […] The optical density (OD) of the solution was determined at=600 nm. […]

Gly-Ile-Gly-Ala-Val-Leu-Lys-Val-Leu-Thr-Thr-Gly-Leu-Pro-Ala-Leu-Ile-Ser-Trp-Ile-Lys-Arg-Lys-Arg-Gln-Gln-Amide [melittin]
critical concentration at which all non-infected cells were killed [1]: 10 μg per ml | level of growth of the cells ([2]; 2.5 μg per ml): appears not yet influenced | selective toxicity/growth inhibition of HIV infected cells, in words ([2]; FIGS. 1-4): appears to inhibit the growth of HIV infected cells selectively | concentration toxic to HIV infected cells ([2]; KE37-1/111β, seven days incubation, 10080 min): above 5 μg per ml
